Measured values from paper PMC11148078, “Potent activity of polymyxin B is associated with long-lived super-stoichiometric accumulation mediated by weak-affinity binding to lipid A” (Nature Communications, 2024).
“Also recorded” adds a separate entry of the source. Like-named read-outs stand apart in the source and are kept apart here. Bridge positions count the residues as written; N and C are the ends. Square brackets hold non-standard residues; d marks the D form. Peptide text beside a SMILES is read from it. * marks the point of attachment. X1 = CC[C@H](C)CCCCC(=O)*; Dab = NCC[C@H](N)C(=O)O

Assays:
[1] = tested on: wt-OMVs; assay: TEM / cryo-EM of treated OMVs; parameters: species or system E. coli; conditions: ~0.5:1 compound to LPS
Protocol: OMVs were incubated in OMV buffer (as above) plus 0.0005% tween-80 and then polymyxin B, PMBN, or an equal volume of OMV buffer, added for a final ratio of 0.5:1 polymyxin B (or PMBN) to LPS for either 1 min or 40 min. The amount of LPS in the OMV preparations was determined using fluorescently labeled LPS as described. LPS was quantified by addition of 20 µL of 4 µM dansyl-polymyxin B to 20 µL of sample or dilution series of LPS in PBS with 0.004% tween-80 and 5 mM EDTA in a while polypropylene 384-well plate (Thermo-Fisher). The plate was incubated for 30 min at room-temperature before reading the fluorescence intensity on a plate reader (Ex 340 nm, Em 495 nm, cutoff 475 nm). Concentration was interpolated using a standard curve. Log-phase bacteria were diluted to OD600 of 0.25 in 3 mL of LB supplemented with tween-80 before addition of 1 µL of 1 µM polymyxin B or PMBN and incubated statically at 37 °C. Samples were fixed at times indicated by addition of equal volume of 2x Karnovsky fix and stored at 4 °C. The suspensions were then adsorbed to the surface of formvar and carbon-coated standard TEM grids (75 mesh) for 15 min at room temperature, quickly rinsed in ultrapure water. OMVs were stained twice for 60 s with 2% aqueous uranyl acetate and bacteria were stained with uranyl-less stain (ready-to-use solution from Electron Microscopy Sciences) twice for 60 s. Excess staining solution was blotted off and grids were air dried. Imaging was with JEOL JEM-1400 transmission electron microscope (TEM) operated at 80 kV using magnification form 5000x to 100,000x. At least 20 images were taken for each sample. […]
California USA, www.graphpad.com). […]
Wild-type and polymyxin-resistant OMVs (pmrAG53E) were incubated with polymyxin B, PMBN, or an equal volume of buffer, as described for TEM imaging at a final ratio of 0.5:1 polymyxin B (or PMBN) to LPS for 20 min. To prepare samples for cryo-EM, 4 μL of each condition was applied to holey gold grids (UltrAuFoil 25 nm R 1.2/1.3; Quantifoil) which had been glow discharged for 20 sec with a Solarus plasma cleaner (Gatan). […]

[2] = target: wt-OMVs; assay: SPR steady-state affinity of reversible (saw-tooth) binding, wt-OMVs; parameters: species or system E. coli; conditions: n=4, (SD), read-out: Apparent KD
Protocol: An apparent-KD was measured for the reversible saw-tooth binding profile where polymyxin B was titrated over an OMV surface pre-saturated with the stable binding component (Supplementary Information Fig. S11B). […] No pre-saturation was necessary when using resistant-OMVs or PMBN as these lack the stable component (Fig. 2B, D–F).
Binding and kinetic analysis of SPR-OMV assays
To determine the apparent- KD of the reversible binding event of polymyxin B, single-cycle kinetics were performed as described in Materials and Methods. After OMVs were loaded, 5 µM polymyxin B was injected for 360 sec ([…] flow rate) followed by 120 sec dissociations to saturate the stable-binding population prior to the sample injections. The base-to-peak value of each trace was determined from double-referenced traces (reference 1: - OMVs/ + compound channel; reference 2: + OMVs/ - compound) exported from the Biacore S200 evaluation software into PRISM 9 software. The change in RU with each pulse was plotted over the concentration and the KD determined by fitting a non-linear regression, one-site total function with background parameter set to 0 (GraphPad Prism version 9.3.1 for Mac, GraphPad Software, San Diego, California USA, www.graphpad.com). […]

SMILES	effect on OMV morphology (words) [1]	Kd ([2]; no pre-saturation) [nM]	effect on OMV morphology (words) ([1]; listed as polymyxin B)	Kd ([2]; isolated reversible binding, OMVs pre-saturated with 5 µM polymyxin B) [nM]
CC(C)C[C@@H]1NC(=O)[C@@H](Cc2ccccc2)NC(=O)[C@H](CCN)NC(=O)[C@@H](NC(=O)[C@H](CCN)NC(=O)[C@@H](N)[C@@H](C)O)CCNC(=O)[C@H]([C@@H](C)O)NC(=O)[C@H](CCN)NC(=O)[C@H](CCN)NC1=O [PMBN] (H-T[Dab][Dab][Dab][dF]L[Dab][Dab]T; lactam 3-C)	less or no OMV clumping was observed	288		
CC[C@H](C)CCCCC(=O)N[C@@H](CCN)C(=O)N[C@H](C(=O)N[C@@H](CCN)C(=O)N[C@H]1CCNC(=O)[C@H]([C@@H](C)O)NC(=O)[C@H](CCN)NC(=O)[C@H](CCN)NC(=O)[C@H](CC(C)C)NC(=O)[C@@H](Cc2ccccc2)NC(=O)[C@H](CCN)NC1=O)[C@@H](C)O [Polymyxin B] (X1-[Dab]T[Dab][Dab][Dab][dF]L[Dab][Dab]T; lactam 4-C (inferred); N-terminus assumed)	led to clumping		exhibited vesiculation and tubules; also recorded: OMVs are perturbed by polymyxin B	517
